Data as given in ChEMBL document CHEMBL3217681, “Phosphofructokinase: structural and functional aspects and design of selective inhibitors” (Medchemcomm, 2012).
pIC50: −log10 of the molar value.

Target: T1, ATP-dependent 6-phosphofructokinase (Trypanosoma brucei, UniProt O15648)
T1 sequence (O15648 whole entry): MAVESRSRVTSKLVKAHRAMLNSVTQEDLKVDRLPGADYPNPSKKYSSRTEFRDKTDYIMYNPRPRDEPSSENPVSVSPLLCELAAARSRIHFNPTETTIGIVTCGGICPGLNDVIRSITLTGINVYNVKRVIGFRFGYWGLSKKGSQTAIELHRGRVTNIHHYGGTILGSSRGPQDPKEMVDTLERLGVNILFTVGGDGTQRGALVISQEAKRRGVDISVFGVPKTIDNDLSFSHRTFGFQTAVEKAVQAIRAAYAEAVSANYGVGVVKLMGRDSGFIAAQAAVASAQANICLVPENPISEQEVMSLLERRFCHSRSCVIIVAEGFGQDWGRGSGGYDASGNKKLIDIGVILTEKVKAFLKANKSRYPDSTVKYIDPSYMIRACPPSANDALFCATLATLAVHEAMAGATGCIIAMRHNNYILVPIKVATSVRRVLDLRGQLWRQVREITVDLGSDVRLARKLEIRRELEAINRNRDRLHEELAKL
Assay: Inhibition of Trypanosoma brucei phosphofructokinase

| SMILES | pIC50 |
| --- | --- |
| OC[C@H]1O[C@H](CNc2ccc(Cl)c(Cl)c2)[C@@H](O)[C@@H]1O | 3.39 |
| OC[C@H]1O[C@H](CNc2ccc3ccccc3c2)[C@@H](O)[C@@H]1O | 3.05 |
